Experimental data reported in patent US8623909B2, “Prophylactic/therapeutic agents for lifestyle-related diseases” (priority 2008, dated 2014).
Marks after values point to notes of the source that are not given here.

Experiments:
ORX rats [1] = assay: Plasma triglyceride level in ORX rats; format: in vivo, rat; details: for Plasma triglyceride concentration: solvent 130.7, sham 236.5; for Effect on triglyceride levels (in words): 1 and 10 mg/Kg
Description: (§1) After housing the animals, the animals were anesthetized with ether, and underwent bilateral orchiectomy (orchiectomized rats: ORX) or a sham treatment. After awaking from the anesthesia, the animals were assigned to test groups of 3 to 5 animals each. […] After 21 days, the rats were sacrificed by exsanguination from the abdominal artery, the ventral prostates and anal levator muscle were excised and weighed followed by immersing in RNAlater (Nacalai Tesque) for extraction of RNA. In addition, soft tissue was removed from the right femur, and immersed in 75% ethanol followed by storage for subsequent measurement of the bone mineral density. Moreover, liver and visceral fat tissue were collected and immersed in RNAlater for RNA extraction.
(§2) Plasma triglyceride and cholesterol levels were measured to characterize the metabolic profiles of ORX rats treated in the aforementioned section (4)-1).

PPARδ mRNA = PPARδ mRNA in anal levator muscle of ORX rats; format: in vivo, rat; details: for PPARδ mRNA/GAPDH mRNA in anal levator muscle: solvent 1.0, sham 0.5; for Effect on PPARδ mRNA expression in anal levator muscle (in words): dihydrotestosterone 1 and 10 mg/kg, compound of formula (Ia) 10 mg/kg
Experimental: (§3) 11-week-old, male Sprague-Dawley (SD) rats (320 to 340 g, purchased from Charles River Japan) were housed for 1 week in a room maintained at a light-dark cycle of 12 hours per day and controlled at a set temperature and humidity while allowing free access to a commercially available standard rodent diet and water.
(§4) After housing the animals, the animals were anesthetized with ether, and underwent bilateral orchiectomy (orchiectomized rats: ORX) or a sham treatment. After awaking from the anesthesia, the animals were assigned to test groups of 3 to 5 animals each. Starting on the day after surgery, the animals were subcutaneously injected once a day with an injection solution of the test compound (prepared by dissolving the test compound in a small amount of DMSO and diluting with olive oil for animal testing (consisting of 95% olive oil and 5% DMSO)) at the rate of 0.1 ml/100 g of body weight. After 21 days, the rats were sacrificed by exsanguination from the abdominal artery, the ventral prostates and anal levator muscle were excised and weighed followed by immersing in RNAlater (Nacalai Tesque) for extraction of RNA. In addition, soft tissue was removed from the right femur, and immersed in 75% ethanol followed by storage for subsequent measurement of the bone mineral density. Moreover, liver and visceral fat tissue were collected and immersed in RNAlater for RNA extraction.
(§5) Total RNA in various tissues of the ORX rats was isolated using the RNeasy Mini Kit or RNeasy Fibrous Tissue Mini Kit (Qiagen). 1 μg of this total RNA was subjected to reverse transcription using the QuantiaTect Reverse Transcription Kit (Qiagen). Next, cDNA was subjected to real-time PCR analysis using LightCycler (Roche Diagnostics) and each of the transcription products was quantified. Furthermore, PCR was carried out in 20 μl of a reaction mixture under the following conditions using SYBR Premix Ex Taq (Takara Biotechnology): 50 cycles consisting of denaturation for 5 seconds at 95° C., annealing for 20 seconds at 60° C. and elongation for 25 seconds at 72° C. In addition, glyceraldehyde-3-phosphate dehydrogenase (GAPDH) mRNA was simultaneously amplified as an internal standard, and the real-time PCR value of each transcription product were calculated as a relative value based on GAPDH.
In addition, expression levels of peroxisome proliferator activating factor receptor-delta (PPARδ) mRNA in anal levator muscle were also measured. This is because this nuclear receptor has been indicated to be related to β-oxidation of fatty acids and energy consumption in skeletal muscle (Proc. Natl. Acad. Sci. USA, 100, 15924-15929). Furthermore, measurements were carried out using a similar method as that previously described.

ORX rats [2] = assay: Plasma FSH concentration in ORX rats; format: in vivo, rat; details: for Plasma FSH concentration: solvent 44.1, sham 12.1; for Effect on FSH levels (in words): dose of 1 or 10 mg/kg
Description: as §1
(§6) Characteristics of the effect of compounds on the pituitary gland were investigated by measuring plasma concentrations of LH and FSH in ORX rats treated in the aforementioned section (4)-1).

SREBP-1c mRNA = SREBP-1c mRNA level in liver and visceral fat of ORX rats; format: in vivo, rat
Description: as §1, §5
(§7) In addition, mRNA levels of insulin receptor substrate 2 (IRS-2) in the liver were also measured.

ORX rats [3] = assay: Plasma LH concentration in ORX rats; format: in vivo, rat; details: for Plasma LH concentration: solvent 10.3, sham 1.7; for Effect on LH levels (in words): 1 and 10 mg/Kg
Description: as §1, §6

CPT-1 mRNA = CPT-1 mRNA level in liver and visceral fat of ORX rats; format: in vivo, rat
Description: as §1, §5, §7

ORX rats [4] = assay: Plasma cholesterol level in ORX rats; format: in vivo, rat; details: for Plasma cholesterol concentration: solvent 78.0, sham 64.8; for Effect on cholesterol levels (in words): 1 and 10 mg/Kg
Description: as §1, §2

PSA mRNA = PSA mRNA expression level in ORX rat prostates; format: in vivo; details: ORX rats; for PSA mRNA/GAPDH mRNA in prostates: 21 days, solvent 1.0, sham 114.4
Description: as §1, §5
The PSA mRNA expression levels in the prostates of the ORX rats obtained in the aforementioned section (4)-1) were measured according to the method of section (4)-3).

FAS mRNA = FAS mRNA level in liver and visceral fat of ORX rats; format: in vivo, rat
Description: as §1, §5, §7

ORX rats [5] = assay: Femoral bone mineral density in ORX rats; format: in vivo, rat; details: solvent 465.3, sham 517.1
Experimental: as §3, §4
The anabolic effect of compounds was studied by using as indicators changes in anal levator muscle weight and bone mineral density (BMD) of the femur and vertebra in the ORX rats treated in the aforementioned section (4)-1).
BMD value of epiphyseal cancellous bone of the femur and vertebra of ORX rats treated in the aforementioned section (4)-1) were measured using Scan Xmate-A100S (Comscantecno).

[6] = liver, 1 mg/Kg, solvent 0.7, sham 1.0
[7] = liver, 10 mg/Kg, solvent 0.7, sham 1.0
[8] = visceral fat, 1 mg/Kg, solvent 1.0, sham 1.0
[9] = visceral fat, 10 mg/Kg, solvent 1.0, sham 1.0
[10] = liver, 1 mg/Kg, solvent 1.4, sham 1.0
[11] = liver, 10 mg/Kg, solvent 1.4, sham 1.0
[12] = visceral fat, 1 mg/Kg, solvent 1.7, sham 1.0
[13] = visceral fat, 10 mg/Kg, solvent 1.7, sham 1.0
[14] = liver, 1 mg/Kg, solvent 0.9, sham 1.0
[15] = liver, 10 mg/Kg, solvent 0.9, sham 1.0
[16] = visceral fat, 1 mg/Kg, solvent 0.5, sham 1.0
[17] = visceral fat, 10 mg/Kg, solvent 0.5, sham 1.0

SMILES	Effect on triglyceride levels (in words) (ORX rats [1])	PPARδ mRNA/GAPDH mRNA in anal levator muscle (PPARδ mRNA; 1 mg/Kg)	PPARδ mRNA/GAPDH mRNA in anal levator muscle (PPARδ mRNA; 10 mg/Kg)	Effect on PPARδ mRNA expression in anal levator muscle (in words) (PPARδ mRNA)	Effect on FSH levels (in words) (ORX rats [2])	SREBP-1c mRNA/GAPDH mRNA level (SREBP-1c mRNA; [6])	SREBP-1c mRNA/GAPDH mRNA level (SREBP-1c mRNA; [7])	SREBP-1c mRNA/GAPDH mRNA level (SREBP-1c mRNA; [8])	SREBP-1c mRNA/GAPDH mRNA level (SREBP-1c mRNA; [9])	Effect on LH levels (in words) (ORX rats [3])	CPT-1 mRNA/GAPDH mRNA level (CPT-1 mRNA; [10])	CPT-1 mRNA/GAPDH mRNA level (CPT-1 mRNA; [11])	CPT-1 mRNA/GAPDH mRNA level (CPT-1 mRNA; [12])	CPT-1 mRNA/GAPDH mRNA level (CPT-1 mRNA; [13])	Effect on cholesterol levels (in words) (ORX rats [4])	PSA mRNA/GAPDH mRNA in prostates (PSA mRNA; 1 mg/Kg s.c. once a day)	PSA mRNA/GAPDH mRNA in prostates (PSA mRNA; 10 mg/Kg s.c. once a day)	FAS mRNA/GAPDH mRNA level (FAS mRNA; [14])	FAS mRNA/GAPDH mRNA level (FAS mRNA; [15])	FAS mRNA/GAPDH mRNA level (FAS mRNA; [16])	other results
CC(=O)[C@H]1CCC2C3CCc4c(C)cccc4C3CC[C@@]21C (stereo partly drawn) [Compound of formula (Ia)]	lowered triglyceride levels considerably	0.9	1.7*	enhanced this expression	did not have any effect on FSH	0.8	0.6	0.8	0.5	did not inhibit LH levels, but rather increased LH levels dose-dependently	3.2**^,#	4.2*	2.0	2.6	did not have an effect on cholesterol levels	1.0**	1.2**	0.7	0.5	0.3*	Plasma triglyceride concentration (ORX rats [1]; 1 mg/Kg): 41.3** mg/dL; Plasma triglyceride concentration (ORX rats [1]; 10 mg/Kg): 39.3** mg/dL; Plasma FSH concentration (ORX rats [2]; 1 mg/Kg): 48.7* ng/mL; Plasma FSH concentration (ORX rats [2]; 10 mg/Kg): 46.3* ng/mL; SREBP-1c mRNA levels (in words) (SREBP-1c mRNA; liver and visceral fat): lower in both tissues; Plasma LH concentration (ORX rats [3]; 1 mg/Kg): 12.6** ng/mL; Plasma LH concentration (ORX rats [3]; 10 mg/Kg): 19.9*^,## ng/mL; CPT-1 mRNA levels (in words) (CPT-1 mRNA; liver and visceral fat): higher in comparison with dihydrotestosterone; Plasma cholesterol concentration (ORX rats [4]; 1 mg/Kg): 66.0 mg/dL; Plasma cholesterol concentration (ORX rats [4]; 10 mg/Kg): 71.5 mg/dL; Change in prostate PSA mRNA levels (in words) (PSA mRNA; 1 and 10 mg/Kg): no changes observed; FAS mRNA levels (in words) (FAS mRNA; liver and visceral fat): also lower; FAS mRNA/GAPDH mRNA level (FAS mRNA; [17]): 0.6; Femoral BMD (ORX rats [5]; 1 mg/Kg): 447.2 mg/mL; Femoral BMD (ORX rats [5]; 10 mg/Kg): 454.0 mg/mL; Femoral BMD (ORX rats [5]; 30 mg/Kg): 475.9 mg/mL
C[C@]12CCC(=O)C[C@@H]1CC[C@@H]1[C@@H]2CC[C@]2(C)[C@@H](O)CC[C@@H]12 [Dihydrotestosterone, 5α-dihydrotestosterone, reference compound]	raised triglyceride levels	0.9	0.5	inhibited this expression dose-dependently	inhibited to levels observed in the untreated control group	3.4	3.2	1.8	2.2	inhibited LH levels	1.3	0.4	1.7	0.8	lowered cholesterol levels	211.4**^,##	209.8**^,##	8.0	7.1	2.3	Increase of prostate PSA mRNA level in comparison with the sham treatment group (PSA mRNA; 1 and 10 mg/Kg): about 1.8 fold; FAS mRNA/GAPDH mRNA level (FAS mRNA; [17]): 3.5*^,#; Femoral BMD (ORX rats [5]; 1 mg/Kg): 472.0 mg/mL; Femoral BMD (ORX rats [5]; 10 mg/Kg): 473.6 mg/mL
